Data taken from US20140094424A1, “MICROBICIDAL COMPOSITIONS AND METHODS OF PRODUCTION USE THEREOF” (priority 2011, published 2014).

Legend:
Gram positive rods (S) = experiment: MBC (minimum bactericidal concentration) test in Wash NEXT reagent; type: cell-based
[1] = system: Pseudomonas aeruginosa (AY); experiment: as above; type: cell-based

[N-]=[N+]=[N-] [Sodium Azide, sodium azide]
MBC test growth score (Gram positive rods (S); 10% preservative, 8 hour): + | MBC test growth score (Gram positive rods (S); 10% preservative, 24 hour): + | MBC test growth score (Gram positive rods (S); 10% preservative, 48 hour): + | MBC test growth score (Gram positive rods (S); 10% preservative, 72 hour): + | MBC test growth score (Gram positive rods (S); 10% preservative, 7 day): + | MBC test growth score (Gram positive rods (S); 10% preservative, 14 day): + | MBC test growth score (Gram positive rods (S); 20% preservative, 8 hour): + | MBC test growth score (Gram positive rods (S); 20% preservative, 24 hour): + | MBC test growth score (Gram positive rods (S); 20% preservative, 48 hour): + | MBC test growth score (Gram positive rods (S); 20% preservative, 72 hour): + | MBC test growth score (Gram positive rods (S); 20% preservative, 7 day): + | MBC test growth score (Gram positive rods (S); 20% preservative, 14 day): + | MBC test growth score (Gram positive rods (S); 30% preservative, 8 hour): + | MBC test growth score (Gram positive rods (S); 30% preservative, 24 hour): + | MBC test growth score (Gram positive rods (S); 30% preservative, 48 hour): + | MBC test growth score (Gram positive rods (S); 30% preservative, 72 hour): + | MBC test growth score (Gram positive rods (S); 30% preservative, 7 day): + | MBC test growth score (Gram positive rods (S); 30% preservative, 14 day): + | MBC test growth score (Gram positive rods (S); 40% preservative, 8 hour): + | MBC test growth score (Gram positive rods (S); 40% preservative, 24 hour): + | MBC test growth score (Gram positive rods (S); 40% preservative, 48 hour): + | MBC test growth score (Gram positive rods (S); 40% preservative, 72 hour): + | MBC test growth score (Gram positive rods (S); 40% preservative, 7 day): + | MBC test growth score (Gram positive rods (S); 40% preservative, 14 day): + | MBC test growth score (Gram positive rods (S); 50% preservative, 8 hour): + | MBC test growth score (Gram positive rods (S); 50% preservative, 24 hour): + | MBC test growth score (Gram positive rods (S); 50% preservative, 48 hour): + | MBC test growth score (Gram positive rods (S); 50% preservative, 72 hour): + | MBC test growth score (Gram positive rods (S); 50% preservative, 7 day): + | MBC test growth score (Gram positive rods (S); 50% preservative, 14 day): + | MBC test growth score (Gram positive rods (S); 60% preservative, 8 hour): + | MBC test growth score (Gram positive rods (S); 60% preservative, 24 hour): + | MBC test growth score (Gram positive rods (S); 60% preservative, 48 hour): + | MBC test growth score (Gram positive rods (S); 60% preservative, 72 hour): + | MBC test growth score (Gram positive rods (S); 60% preservative, 7 day): + | MBC test growth score (Gram positive rods (S); 60% preservative, 14 day): + | MBC test growth score (Gram positive rods (S); 70% preservative, 8 hour): + | MBC test growth score (Gram positive rods (S); 70% preservative, 24 hour): + | MBC test growth score (Gram positive rods (S); 70% preservative, 48 hour): + | MBC test growth score (Gram positive rods (S); 70% preservative, 72 hour): + | MBC test growth score (Gram positive rods (S); 70% preservative, 7 day): + | MBC test growth score (Gram positive rods (S); 70% preservative, 14 day): + | MBC test growth score (Gram positive rods (S); 80% preservative, 8 hour): + | MBC test growth score (Gram positive rods (S); 80% preservative, 24 hour): + | MBC test growth score (Gram positive rods (S); 80% preservative, 48 hour): + | MBC test growth score (Gram positive rods (S); 80% preservative, 72 hour): + | MBC test growth score (Gram positive rods (S); 80% preservative, 7 day): + | MBC test growth score (Gram positive rods (S); 80% preservative, 14 day): + | MBC test growth score (Gram positive rods (S); 90% preservative, 8 hour): + | MBC test growth score (Gram positive rods (S); 90% preservative, 24 hour): + | MBC test growth score (Gram positive rods (S); 90% preservative, 48 hour): + | MBC test growth score (Gram positive rods (S); 90% preservative, 72 hour): + | MBC test growth score (Gram positive rods (S); 90% preservative, 7 day): + | MBC test growth score (Gram positive rods (S); 90% preservative, 14 day): + | MBC test growth score (Gram positive rods (S); 100% preservative, 8 hour): + | MBC test growth score (Gram positive rods (S); 100% preservative, 24 hour): + | MBC test growth score (Gram positive rods (S); 100% preservative, 48 hour): + | MBC test growth score (Gram positive rods (S); 100% preservative, 72 hour): + | MBC test growth score (Gram positive rods (S); 100% preservative, 7 day): + | MBC test growth score (Gram positive rods (S); 100% preservative, 14 day): + | total kill at % preservative (MBC) (Gram positive rods (S); at 14 days, listed as Na Azide): No kill @ 100% | MBC test growth score ([1]; 10% preservative, 8 hour): + | MBC test growth score ([1]; 10% preservative, 24 hour): + | MBC test growth score ([1]; 10% preservative, 48 hour): + | MBC test growth score ([1]; 10% preservative, 72 hour): + | MBC test growth score ([1]; 20% preservative, 8 hour): + | MBC test growth score ([1]; 20% preservative, 24 hour): + | MBC test growth score ([1]; 20% preservative, 48 hour): + | MBC test growth score ([1]; 20% preservative, 72 hour): + | MBC test growth score ([1]; 30% preservative, 8 hour): + | MBC test growth score ([1]; 30% preservative, 24 hour): + | MBC test growth score ([1]; 30% preservative, 48 hour): + | MBC test growth score ([1]; 30% preservative, 72 hour): + | MBC test growth score ([1]; 40% preservative, 8 hour): + | MBC test growth score ([1]; 40% preservative, 24 hour): + | MBC test growth score ([1]; 40% preservative, 48 hour): + | MBC test growth score ([1]; 40% preservative, 72 hour): + | MBC test growth score ([1]; 50% preservative, 8 hour): + | MBC test growth score ([1]; 50% preservative, 24 hour): + | MBC test growth score ([1]; 50% preservative, 48 hour): + | MBC test growth score ([1]; 50% preservative, 72 hour): + | MBC test growth score ([1]; 60% preservative, 8 hour): + | MBC test growth score ([1]; 60% preservative, 24 hour): + | MBC test growth score ([1]; 60% preservative, 48 hour): + | MBC test growth score ([1]; 60% preservative, 72 hour): + | MBC test growth score ([1]; 70% preservative, 8 hour): + | MBC test growth score ([1]; 70% preservative, 24 hour): + | MBC test growth score ([1]; 70% preservative, 48 hour): + | MBC test growth score ([1]; 70% preservative, 72 hour): + | MBC test growth score ([1]; 80% preservative, 8 hour): + | MBC test growth score ([1]; 80% preservative, 24 hour): + | MBC test growth score ([1]; 80% preservative, 48 hour): + | MBC test growth score ([1]; 80% preservative, 72 hour): + | MBC test growth score ([1]; 90% preservative, 8 hour): + | MBC test growth score ([1]; 90% preservative, 24 hour): + | MBC test growth score ([1]; 90% preservative, 48 hour): + | MBC test growth score ([1]; 90% preservative, 72 hour): + | MBC test growth score ([1]; 100% preservative, 8 hour): + | MBC test growth score ([1]; 100% preservative, 24 hour): + | MBC test growth score ([1]; 100% preservative, 48 hour): + | MBC test growth score ([1]; 100% preservative, 72 hour): + | total kill at % preservative (MBC) ([1]; at 72 hours, listed as Na Azide): No kill @ 100%
